For assay [1], the target named is T1, Acetylcholinesterase (Homo sapiens, UniProt P22303). In words: Inhibition of acetylcholinesterase (unknown origin).
Assay [2] deals with T1, Acetylcholinesterase. In words: Inhibition of human acetylcholinesterase.

T1 sequence (P22303 whole entry): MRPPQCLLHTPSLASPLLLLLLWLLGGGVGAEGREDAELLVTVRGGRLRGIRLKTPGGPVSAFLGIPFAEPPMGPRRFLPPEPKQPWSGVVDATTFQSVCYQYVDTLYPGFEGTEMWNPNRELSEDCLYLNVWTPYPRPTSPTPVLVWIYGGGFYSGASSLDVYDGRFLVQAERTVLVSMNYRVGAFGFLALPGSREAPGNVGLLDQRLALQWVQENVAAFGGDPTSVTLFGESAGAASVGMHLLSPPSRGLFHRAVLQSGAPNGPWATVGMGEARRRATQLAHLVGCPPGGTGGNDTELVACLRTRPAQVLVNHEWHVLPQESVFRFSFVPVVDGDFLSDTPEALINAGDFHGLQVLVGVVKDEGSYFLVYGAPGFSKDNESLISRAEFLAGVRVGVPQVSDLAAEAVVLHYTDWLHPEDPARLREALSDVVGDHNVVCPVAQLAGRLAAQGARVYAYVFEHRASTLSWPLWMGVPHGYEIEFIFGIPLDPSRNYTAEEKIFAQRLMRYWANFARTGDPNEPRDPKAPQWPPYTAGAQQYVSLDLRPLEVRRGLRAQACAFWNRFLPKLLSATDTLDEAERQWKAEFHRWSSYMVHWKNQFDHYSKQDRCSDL

On to `Cc1coc2c1C(=O)C(=O)c1c-2ccc2c1CCCC2(C)C` [TANSHINONE IIA], for which, on Acetylcholinesterase [1], the IC50 is more than 140000 nM.
Still for that read-out and setting: to `Cc1coc2c1C(=O)C(=O)c1c-2ccc2c(C)cccc12` [TANSHINONE I] belongs more than 50000 nM.
Regarding `Cc1cccc2c3c(ccc12)C1=C(C(=O)C3=O)[C@@H](C)CO1` [DIHYDROTANSHINONE I], on Acetylcholinesterase [2], the Ki was 600 nM. The compound also came in with an IC50 at Acetylcholinesterase [1] of 1000 nM.

(Values after ChEMBL document CHEMBL3091358, “Structures of human acetylcholinesterase bound to dihydrotanshinone I and territrem B show peripheral site flexibility” (ACS Med Chem Lett, 2013).)
